biological target: IDO (Homo sapiens, UniProt P14902); test: LLE_IDO_ABS_DR (IDO assay)
Sequence (P14902 whole entry): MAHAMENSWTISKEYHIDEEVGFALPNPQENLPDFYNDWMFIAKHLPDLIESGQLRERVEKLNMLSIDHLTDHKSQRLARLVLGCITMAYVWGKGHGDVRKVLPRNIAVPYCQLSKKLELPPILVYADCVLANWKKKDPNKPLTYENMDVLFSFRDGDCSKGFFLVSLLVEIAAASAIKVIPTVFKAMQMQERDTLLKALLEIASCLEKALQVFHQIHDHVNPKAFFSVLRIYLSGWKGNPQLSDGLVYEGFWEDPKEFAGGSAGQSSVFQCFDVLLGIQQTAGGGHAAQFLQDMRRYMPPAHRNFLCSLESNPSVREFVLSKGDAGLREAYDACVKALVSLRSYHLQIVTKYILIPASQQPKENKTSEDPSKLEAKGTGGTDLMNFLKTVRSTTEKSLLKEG

Compound	IC50 [nM]
CCCN(c1ccc(-c2ccccc2-c2nnn[nH]2)cc1NC(=O)Nc1ccc(C)cc1)C1CCCCC1 [Example 85, 1-(4-(cyclohexyl(propyl)amino)-2′-(1H-tetrazol-5-yl)biphenyl-3-yl)-3-p-tolylurea]	1.65
[2H]C([2H])(C(C)C)N(c1ccc(-c2sccc2C(=O)O)cc1NC(=O)Nc1ccccc1F)C1CCCCC1 [Example 36, 2-(4-(Cyclohexyl(1,1-dideutero-2-methylpropyl)amino)-3-(3-(2-fluorophenyl)ureido)phenyl)thiophene-3-carboxylic acid]	5.9
Cc1ccc(NC(=O)Nc2cc(-c3ccccc3C(=O)O)ccc2N(C)C2CCC(F)(F)CC2)cc1 [Example 104, 4′-((4,4-difluoro-cyclohexyl) (methyl)amino)-3′-(3-p-tolylureido)biphenyl-2-carboxylic acid]	100
CC(C)CN(c1ccc(-c2ccccc2-c2nnn[nH]2)cc1NC(=O)Nc1ccccc1F)C1CCCCC1 [Example 121, 1-(4-(cyclohexyl(isobutyl)amino)-2′-(1H-tetrazol-5-yl)biphenyl-3-yl)-3-(2-fluorophenyl)urea]	2.59
CCN(CC(C)(C)C)c1ccc(-c2ccccc2C(=O)O)cc1NC(=O)Nc1ccc(C)cc1 [Example 111, 4′-(ethyl(neopentyl)amino)-3′-(3-p-tolylureido)biphenyl-2-carboxylic acid]	210
Cc1ccc(NC(=O)Nc2cc(-c3cccc(C(=O)O)c3)ccc2N(CC(C)C)CC2CCC2)cc1 [Example 97, 4′-((cyclobutylmethyl) (isobutyl)amino)-3′-(3-p-tolylureido)biphenyl-3-carboxylic acid]	4640
Cc1ccc(NC(=O)Nc2cc(-c3c(C(=O)O)cccc3N(C)C)ccc2N(CC(C)C)CC(C)C)cc1 [Example 101, 4′-(diisobutylamino)-6-(dimethylamino)-3′-(3-p-tolylureido) biphenyl-2-carboxylic acid]	10
Cc1ccc(NC(=O)Nc2cc(-c3ccccc3C(=O)O)ccc2N(C)C2CCCCCC2)cc1 [Example 80, 4′-(cycloheptyl(methyl)amino)-3′-(3-p-tolylureido)biphenyl-2-carboxylic acid]	8.75
CCN(CC(C)(C)C)c1ccc(-c2cc(F)ccc2C(=O)O)cc1NC(=O)Nc1ccccc1F [Example 115, 4′-(ethyl(neopentyl)amino)-5-fluoro-3′-(3-(2-fluorophenyl)ureido) biphenyl-2-carboxylic acid]	350
Cc1ccc(NC(=O)Nc2cc(-c3ccccc3C(=O)O)ccc2N(CCC(F)(F)F)CC2CC2)cc1 [Example 64, 4′-((cyclopropylmethyl) (3,3,3-trifluoropropyl)amino)-3′-(3-p-tolylureido)biphenyl-2-carboxylic acid]	290
Cc1ccc(NC(=O)Nc2cc(-c3ccccc3-c3nnn[nH]3)ccc2N(Cc2ccccc2)CC(F)F)cc1 [Example 22, 1-(4-(Benzyl(2,2-difluoroethyl)amino)-2′-(1H-tetrazol-5-yl)-[1,1′-biphenyl]-3-yl)-3-(p-tolyl)urea]	30
CCN(CC(C)(C)C)c1ccc(-c2ccccc2-c2nnn[nH]2)cc1NC(=O)Nc1ccc(C)cc1 [Example 110, 1-(4-(ethyl(neopentyl)amino)-2′-(1H-tetrazol-5-yl)biphenyl-3-yl)-3-p-tolylurea]	40
Cc1ccc(NC(=O)Nc2cc(-c3cc(F)ccc3C(=O)O)ccc2N(CC(C)C)C2CCCCC2)cc1 [Example 124, 4′-(cyclohexyl(isobutyl)amino)-5-fluoro-3′-(3-p-tolylureido)biphenyl-2-carboxylic acid]	5.18
CCn1nc(C)c(-c2ccc(N(CC(C)C)CC(C)C)c(NC(=O)Nc3ccc(C)cc3)c2)c1C(=O)O [Example 102, 4-(4-(diisobutylamino)-3-(3-p-tolylureido)phenyl)-1-ethyl-3-methyl-1H-pyrazole-5-carboxylic acid]	210
Cc1ccc(NC(=O)Nc2cc(-c3cc(F)ccc3C(=O)O)ccc2N(C)C2CCC(F)(F)CC2)cc1 [Example 105, 4′-((4,4-difluoro-cyclohexyl) (methyl)amino)-5-fluoro-3′-(3-p-tolylureido) biphenyl-2-carboxylic acid]	190
Cc1ccc(NC(=O)Nc2cc(-c3ccccc3-c3nnn[nH]3)ccc2N(CC(C)C)C2CCCCC2)cc1 [Example 118, 1-(4-(cyclohexyl(isobutyl)amino)-2′-(1H-tetrazol-5-yl)biphenyl-3-yl)-3-p-tolylurea]	4.76
Cc1ccc(NC(=O)Nc2cc(-c3ccccc3C(=O)C(C#N)S(C)(=O)=O)ccc2N(CC(C)C)CC(C)C)cc1 (stereo not shown) [Example 96, 1-(2′-(2-cyano-2-(methylsulfonyl)acetyl)-4-(diisobutylamino)biphenyl-3-yl)-3-p-tolylurea]	1180

Further lines, results first:

IC50 [nM]	Compound
10	O=C(Nc1ccc(C2CC2)c(F)c1)Nc1cc(-c2ccccc2-c2nnn[nH]2)ccc1N(CCCC(F)(F)F)Cc1ccc(Cl)cc1 [Example 297, 1-(4-((4-chlorobenzyl)(4,4,4-trifluorobutyl)amino)-2′-(1H-tetrazol-5-yl)-[1,1′-biphenyl]-3-yl)-3-(4-cyclopropyl-3-fluorophenyl)urea]
4.85	Cc1ccc(NC(=O)Nc2cc(-c3ccccc3-c3nnn[nH]3)ccc2N(CCCC(F)(F)F)Cc2ccc(Cl)cc2)cc1 [Example 320, 1-(4-((4-chlorobenzyl)(4,4,4-trifluorobutyl)amino)-2′-(1H-tetrazol-5-yl)-[1,1′-biphenyl]-3-yl)-3-(p-tolyl)urea]
6070	CC(C)CN(CC(C)C)c1ccc(-c2ccccc2-c2nnn[nH]2)cc1NC(=O)Nc1cc(C(N)=O)ccc1Cl [Example 254, 4-chloro-3-(3-(4-(diisobutylamino)-2′-(1H-tetrazol-5-yl)-[1,1′-biphenyl]-3-yl)ureido)benzamide]
30	CC(C)CN(CCC1CC1)c1ccc(-c2ccccc2C(=O)O)cc1NC(=O)Nc1ccccc1F [Example 134, 4′-((2-cyclopropylethyl) (isobutyl)amino)-3′-(3-(2-fluorophenyl)ureido)biphenyl-2-carboxylic acid]
230	Cc1ccc(NC(=O)Nc2cc(-c3ccccc3C(=O)O)ccc2N(C)CC(C)C)cc1 [Example 180, 4′-(isobutyl(methyl)amino)-3′-(3-(p-tolyl)ureido)-[1,1′-biphenyl]-2-carboxylic acid]
10	CC(C)CN(CC(C)C)c1ccc(-c2cc(F)ccc2C(=O)O)cc1NC(=O)Nc1ccc(F)cc1F [Example 146, 3′-(3-(2,4-difluorophenyl)ureido)-4′-(diisobutylamino)-5-fluorobiphenyl-2-carboxylic acid]
40	C=C(C)CN(CC(F)(F)F)c1ccc(-c2ccccc2C(=O)O)cc1NC(=O)Nc1ccc(C)cc1 [Example 471]
190	COc1ccc(C(=O)O)c(-c2ccc(N(CC(C)C)CC(C)C)c(NC(=O)Nc3ccc(F)cc3F)c2)c1 [Example 160, 3′-(3-(2,4-difluorophenyl)ureido)-4′-(diisobutylamino)-5-methoxybiphenyl-2-carboxylic acid]
2500	Cc1ccc(NC(=O)Nc2cc(-c3ccccc3-c3nnn[nH]3)ccc2N2CCC(c3ccccc3)C2)cn1 (racemic) [Example 368, (±)-1-(6-Methylpyridin-3-yl)-3-(4-(3-phenylpyrrolidin-1-yl)-2′-(1H-tetrazol-5-yl)-[1,1′-biphenyl]-3-yl)urea]
950	CC(C)CN(CC(C)C)c1ccc(-c2ccccc2-c2nnn[nH]2)cc1NC(=O)NCC1CC1 [Example 142, 1-(cyclopropylmethyl)-3-(4-(diisobutylamino)-2′-(1H-tetrazol-5-yl)biphenyl-3-yl)urea]
780	CC(C)CN(CC(C)C)c1ccc(-c2ccccc2-c2nnn[nH]2)cc1NC(=O)Nc1cccc2c1CCC2 [Example 276, 1-(2,3-dihydro-1H-inden-4-yl)-3-(4-(diisobutylamino)-2′-(1H-tetrazol-5-yl)-[1,1′-biphenyl]-3-yl)urea]
900	O=C(Nc1ccc(OC(F)(F)F)cc1)Nc1cc(-c2ccccc2-c2nnn[nH]2)ccc1N1CCCc2ccccc21 [Example 363, 1-(4-(3,4-Dihydroquinolin-1(2H)-yl)-2′-(1H-tetrazol-5-yl)-[1,1′-biphenyl]-3-yl)-3-(4-(trifluoromethoxy)phenyl)urea]
5.68	CCCN(c1ccc(-c2ccccc2-c2nnn[nH]2)cc1NC(=O)Nc1ccccc1F)C1CCCC1 [Example 170, 1-(4-(cyclopentyl(propyl)amino)-2′-(1H-tetrazol-5-yl)biphenyl-3-yl)-3-(2-fluorophenyl)urea]
120	O=C(Nc1ccc(OC(F)(F)F)cc1)Nc1cc(-c2ccccc2-c2nnn[nH]2)ccc1N1CC2CC1CN2Cc1ccccc1 (stereo not shown) [Example 318, 1-(4-(5-benzyl-2,5-diazabicyclo[2.2.1]heptan-2-yl)-2′-(1H-tetrazol-5-yl)-[1,1′-biphenyl]-3-yl)-3-(4-(trifluoromethoxy)phenyl)urea]
2140	CC1CC(C)CN(c2ccc(-c3ccccc3-c3nnn[nH]3)cc2NC(=O)Nc2ccc(F)cc2)C1 (stereo not shown) [Example 236]
110	Cc1ccc(NC(=O)Nc2cc(-c3cc(F)ccc3C(=O)O)ccc2N(CCC(F)(F)F)CC(C)C)cc1 [Example 200, 5-fluoro-4′-(isobutyl (3,3,3-trifluoropropyl)amino)-3′-(3-(p-tolyl)ureido)-[1,1′-biphenyl]-2-carboxylic acid]
1590	Cc1noc(C2CCN(c3ccc(-c4ccccc4-c4nnn[nH]4)cc3NC(=O)Nc3ccc(C(F)(F)F)cc3F)C2)n1 (stereo not shown) [Example 390]
620	Cc1ccc(NC(=O)Nc2cc(-c3ccccc3-c3nnn[nH]3)ccc2N2CCC(c3nc(C)no3)C2)cc1 (stereo not shown) [Example 389]
2.28	CC(C)CN(CC(C)C)c1ccc(-c2ccccc2-c2nnn[nH]2)cc1NC(=O)Nc1ccc(N=[N+]=[N-])cc1 [Example 285, 1-(4-azidophenyl)-3-(4-(diisobutylamino)-2′-(1H-tetrazol-5-yl)-[1,1′-biphenyl]-3-yl)urea]
180	CC(C)CN(CC(C)C)c1ccc(-c2ccccc2-c2nnn[nH]2)cc1NC(=O)Nc1cccc(OC(F)(F)F)c1 [Example 273, 1-(4-(diisobutylamino)-2′-(1H-tetrazol-5-yl)-[1,1′-biphenyl]-3-yl)-3-(3-(trifluoromethoxy)phenyl)urea]

Reference: patent US9758492B2, “IDO inhibitors” (Bristol-Myers Squibb Company, priority 2013, dated 2017)
